# Laboratory results from patent publication US20130005747A1, “METHOD FOR SELECTING A CANCER THERAPY” (Cyclacel Limited, priority 2010, published 2013).
# What was measured:
# HO-1-u-1 = test: Fractional growth, 72 h seliciclib; assay type: cell-based, human; details: HO-1-u-1 (Head & Neck), 15 μM seliciclib
# Text: (§1) A total of 270 human cancer cell lines from diverse cancer histopathologic types were investigated.
# IGROV-1 = test: Fractional growth, 72 h seliciclib; assay type: cell-based, human; details: IGROV-1 (Ovary), 15 μM seliciclib
# Text: as §1
# NCI-H2030 = test: Fractional growth, 72 h seliciclib; assay type: cell-based, human; details: NCI-H2030 (Lung: NSCLC), 15 μM seliciclib
# Text: as §1
# PCI-6B = test: Fractional growth, 72 h seliciclib; assay type: cell-based, human; details: PCI-6B (Head & Neck), 15 μM seliciclib
# Text: as §1
# SW 1573 = test: Fractional growth, 72 h seliciclib; assay type: cell-based, human; details: SW 1573 (Lung: NSCLC), 15 μM seliciclib
# Text: as §1
# G-401 = test: Fractional growth, 72 h seliciclib; assay type: cell-based, human; details: G-401 (Kidney), 15 μM seliciclib
# Text: as §1
# Detroit 562 = test: Fractional growth, 72 h seliciclib; assay type: cell-based, human; details: Detroit 562 (Head & Neck), 15 μM seliciclib
# Text: as §1
# C-4 I = test: Fractional growth, 72 h seliciclib; assay type: cell-based, human; details: C-4 I (Cervix), 15 μM seliciclib
# Text: as §1
# JHU-019 = test: Fractional growth, 72 h seliciclib; assay type: cell-based, human; details: JHU-019 (Head & Neck), 15 μM seliciclib
# Text: as §1
# NCI-H522 = test: Fractional growth, 72 h seliciclib; assay type: cell-based, human; details: NCI-H522 (Lung: NSCLC), 15 μM seliciclib
# Text: as §1
# MS751 = test: Fractional growth, 72 h seliciclib; assay type: cell-based, human; details: MS751 (Cervix), 15 μM seliciclib
# Text: as §1
# DoTc2 4510 = test: Fractional growth, 72 h seliciclib; assay type: cell-based, human; details: DoTc2 4510 (Cervix), 15 μM seliciclib
# Text: as §1
# SW 48 = test: Fractional growth, 72 h seliciclib; assay type: cell-based, human; details: SW 48 (Intestine), 15 μM seliciclib
# Text: as §1
# ABC-1 = test: Fractional growth, 72 h seliciclib; assay type: cell-based, human; details: ABC-1 (Lung: NSCLC), 15 μM seliciclib
# Text: as §1
# SNU-398 = test: Fractional growth, 72 h seliciclib; assay type: cell-based, human; details: SNU-398 (Liver), 15 μM seliciclib
# Text: as §1
# BxPC-3 = test: Fractional growth, 72 h seliciclib; assay type: cell-based, human; details: BxPC-3 (Pancreas), 15 μM seliciclib
# Text: as §1
# NCI-H2172 = test: Fractional growth, 72 h seliciclib; assay type: cell-based, human; details: NCI-H2172 (Lung: NSCLC), 15 μM seliciclib
# Text: as §1
# BHT-101 = test: Fractional growth, 72 h seliciclib; assay type: cell-based, human; details: BHT-101 (Thyroid), 15 μM seliciclib
# Text: as §1
# NUGC-3 = test: Fractional growth, 72 h seliciclib; assay type: cell-based, human; details: NUGC-3 (Stomach), 15 μM seliciclib
# Text: as §1
# SW 1116 = test: Fractional growth, 72 h seliciclib; assay type: cell-based, human; details: SW 1116 (Intestine), 15 μM seliciclib
# Text: as §1
# MFE-280 = test: Fractional growth, 72 h seliciclib; assay type: cell-based, human; details: MFE-280 (Uterus), 15 μM seliciclib
# Text: as §1
# Lu-135 = test: Fractional growth, 72 h seliciclib; assay type: cell-based, human; details: Lu-135 (Lung), 15 μM seliciclib
# Text: as §1
# NCI-H1734 = test: Fractional growth, 72 h seliciclib; assay type: cell-based, human; details: NCI-H1734 (Lung: NSCLC), 15 μM seliciclib
# Text: as §1
# RT112/84 = test: Fractional growth, 72 h seliciclib; assay type: cell-based, human; details: RT112/84 (Bladder), 15 μM seliciclib
# Text: as §1
# MEL-JUSO = test: Fractional growth, 72 h seliciclib; assay type: cell-based, human; details: MEL-JUSO (Skin), 15 μM seliciclib
# Text: as §1
# SW756 = test: Fractional growth, 72 h seliciclib; assay type: cell-based, human; details: SW756 (Cervix), 15 μM seliciclib
# Text: as §1
# NCI-H2170 = test: Fractional growth, 72 h seliciclib; assay type: cell-based, human; details: NCI-H2170 (Lung: NSCLC), 15 μM seliciclib
# Text: as §1
# KYSE-450 = test: Fractional growth, 72 h seliciclib; assay type: cell-based, human; details: KYSE-450 (Esophagus), 15 μM seliciclib
# Text: as §1
# Ca9-22 = test: Fractional growth, 72 h seliciclib; assay type: cell-based, human; details: Ca9-22 (Head & Neck), 15 μM seliciclib
# Text: as §1
# PCI-6A = test: Fractional growth, 72 h seliciclib; assay type: cell-based, human; details: PCI-6A (Head & Neck), 15 μM seliciclib
# Text: as §1
# JHH-6 = test: Fractional growth, 72 h seliciclib; assay type: cell-based, human; details: JHH-6 (Liver), 15 μM seliciclib
# Text: as §1
# CAL-29 = test: Fractional growth, 72 h seliciclib; assay type: cell-based, human; details: CAL-29 (Bladder), 15 μM seliciclib
# Text: as §1
# [1] = test system: C-10 murine immortalized pulmonary epithelial cells; test: Growth inhibition of immortalized pulmonary epithelial cells (FIG. 6B); assay type: cell-based
smiles,measurement,setting,value
"CC[C@H](CO)Nc1nc(NCc2ccccc2)c2ncn(C(C)C)c2n1 [seliciclib, roscovitine]",Fractional Growth,HO-1-u-1,0.4858
same,Fractional Growth,IGROV-1,0.4776
same,Fractional Growth,NCI-H2030,0.3063
same,Fractional Growth,PCI-6B,0.5328
same,Fractional Growth,SW 1573,0.6076
same,Fractional Growth,G-401,0.3542
same,Fractional Growth,Detroit 562,0.1846
same,Fractional Growth,C-4 I,0.5067
same,Fractional Growth,JHU-019,0.4229
same,Fractional Growth,NCI-H522,0.6262
same,Fractional Growth,MS751,0.3573
same,Fractional Growth,DoTc2 4510,0.6205
same,Fractional Growth,SW 48,0.1123
same,Fractional Growth,ABC-1,0.6543
same,Fractional Growth,SNU-398,0.0473
same,Fractional Growth,BxPC-3,0.671
same,Fractional Growth,NCI-H2172,0.6197
same,Fractional Growth,BHT-101,0.4486
same,Fractional Growth,NUGC-3,0.5557
same,Fractional Growth,SW 1116,0.7592
same,Fractional Growth,MFE-280,0.5959
same,Fractional Growth,Lu-135,0.2812
same,Fractional Growth,NCI-H1734,0.2849
same,Fractional Growth,RT112/84,0.318
same,Fractional Growth,MEL-JUSO,0.4945
same,Fractional Growth,SW756,0.6484
same,Fractional Growth,NCI-H2170,0.4534
same,Fractional Growth,KYSE-450,0.4067
same,Fractional Growth,Ca9-22,0.4623
same,Fractional Growth,PCI-6A,0.5818
same,Fractional Growth,JHH-6,0.3234
same,Fractional Growth,CAL-29,0.5744
same,growth inhibition (in words),[1],Dose-dependent growth inhibition
